The source of these data is patent US11976083B2, “Inhibitors of peptidylarginine deiminases” (Gilead Sciences, Inc., priority 2020, dated 2024).

T1 sequence (Q9UM07 2-663): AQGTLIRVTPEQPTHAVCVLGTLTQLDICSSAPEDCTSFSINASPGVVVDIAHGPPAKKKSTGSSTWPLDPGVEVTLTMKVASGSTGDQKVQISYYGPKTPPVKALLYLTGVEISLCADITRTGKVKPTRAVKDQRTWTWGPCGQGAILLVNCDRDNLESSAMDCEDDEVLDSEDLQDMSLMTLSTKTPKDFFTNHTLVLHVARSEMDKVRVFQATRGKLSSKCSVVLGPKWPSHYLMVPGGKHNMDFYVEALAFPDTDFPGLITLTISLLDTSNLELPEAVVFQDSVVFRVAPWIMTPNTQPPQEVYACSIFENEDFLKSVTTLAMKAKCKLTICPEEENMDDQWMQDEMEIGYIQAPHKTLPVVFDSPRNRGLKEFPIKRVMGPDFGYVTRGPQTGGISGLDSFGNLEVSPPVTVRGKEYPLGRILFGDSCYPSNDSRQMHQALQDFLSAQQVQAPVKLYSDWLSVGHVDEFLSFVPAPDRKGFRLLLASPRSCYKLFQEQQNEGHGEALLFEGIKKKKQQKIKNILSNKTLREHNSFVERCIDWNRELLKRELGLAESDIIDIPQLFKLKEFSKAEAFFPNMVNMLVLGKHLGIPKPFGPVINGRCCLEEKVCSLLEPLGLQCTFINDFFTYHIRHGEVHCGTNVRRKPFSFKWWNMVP

This assay addresses T1, human PAD4 (Homo sapiens, UniProt Q9UM07).
T1 construct: human PAD4 (NM_012387), A2-P663, was PCR amplified; His-SUMO (N, cleaved yes); made in house; host or cells: E. coli BL21(DE3)
Description: In vitro PAD4 BAEE biochemical assay. To be noted: BAEE substrate 3 mM, 5 nM PAD4, 2 mM calcium chloride; geometric mean of multiple experiments. In short, it runs like this: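 Fluorescence read-out (ex 405/em 535 nm) of isoindole formed from ammonia, o-phthalaldehyde and DTT after EDTA stop. Reaction: 5 nM PAD4, 2 mM CaCl2, 3 mM BAEE, 2 h, 25 °C, after 30 min enzyme–compound preincubation. Normalised to BB-Cl-Amidine (50 µM) and DMSO controls.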
In the case of `COc1cc(C(=O)N2CC[C@@H](OC(F)F)[C@@H](N)C2)cc2nc(-c3cc4ccc5nc4n3CCCCCc3cnccc3C(=O)N[C@@H]5C)n(C)c12` [Example 492, (2~{R})-17-[5-[(3~{S}, 4~{R})-3-amino-4-(difluoromethoxy)piperidine-1-carbonyl]-7-methoxy-1-methyl-benzimidazol-2-yl]-2-methyl-3,8,16,22-tetrazatetracyclo [14.5.2.0^{5,10}.0^{19,23}] tricosa-1(22),5(10), 6,8,17,19(23),20-heptaen-4-one], the IC50 (in general, the concentration needed to halve the response being measured) worked out at 156 nM.

Regarding `COCCO[C@@H]1CCN(C(=O)c2cc(OC)c3c(c2)nc(-c2cc4ccc5nc4n2CCCCC[C@@H]2C[C@H]2C(=O)N[C@@H]5C)n3C)C[C@@H]1N` [Example 493, (2~{R},5~{R},7~{R})-14-[5-[(3~{S},4~{R})-3-amino-4-(2-methoxyethoxy)piperidine-1-carbonyl]-7-methoxy-1-methyl-benzimidazol-2-yl]-2-methyl-3,13,19-triazatetracyclo [11.5.2.0^{5,7}.0^{16,20}] icosa-1(19),14,16(20), 17-tetraen-4-one], the IC50 is 76 nM. For the molecule `COc1cc(C(=O)N2CC[C@@H](OCC34CC(F)(C3)C4)[C@@H](N)C2)cc2nc(-c3cc4ccc5nc4n3CCCCC[C@@H]3C[C@H]3C(=O)N[C@@H]5C)n(C)c12` [Example 494], the IC50 was 136 nM. As for `COc1cc(C(=O)N[C@H]2CNCCC2(F)F)cc2nc(-c3cc4ccc5nc4n3CCC/C=C/c3ccccc3C(=O)N[C@@H]5C)n(C)c12` [Example 495, ~{N}-[(3~{S})-4,4-difluoro-3-piperidyl]-7-methoxy-1-methyl-2-[(2~{R},11~{E})-2-methyl-4-oxo-3,16,22-triazatetracyclo[14.5.2.0^ {5,10}.0^{19,23}]tricosa-1(22),5(10),6,8,11, 17,19(23),20-octaen-17-yl] benzimidazole-5-carboxamide], the IC50 was 518 nM. Take `COc1cc(C(=O)N2CC[C@@H](OC)[C@@H](N)C2)cc2nc(-c3cc4ccc5nc4n3CCC/C=C/c3ccccc3C(=O)N[C@@H]5C)n(C)c12` [Example 496, (2~{R},11~{E})-17-[5-[(3~{S},4~{R})-3-amino-4-methoxy-piperidine-1-carbonyl]-7-methoxy-1-methyl-benzimidazol-2-yl]-2-methyl-3,16,22-triazatetracyclo[14.5.2.0^ {5,10).0^{19,23}]tricosa-1(22),5(10),6,8,11,17,19 (23),20-octaen-4-one]: the IC50 amounted to 125 nM.

Turning to `C[C@H]1NS(=O)(=O)CCCC/C=C/Cn2c(-c3nc4cc(C(=O)N[C@H]5CNCC[C@@H]5F)c(F)cc4n3C)cc3ccc1nc32` [Example 497, 6-fluoro-~{N}-[(3~ {S},4~{S})-4-fluoro-3-piperidyl]-1-methyl-2-[(3~{E},11~{R})-11-methyl-9,9-dioxo-9$1^6-thia-1,10,19-triazatricyclo[10.5.2.0^{15,18}]nonadeca-3,12(19),13,15 (18),16-pentaen-17-yl]benzimidazole-5-carboxamide], the IC50 is 54 nM. For `C[C@H]1NC(=O)c2ncccc2CCCCCn2c(-c3nc4cc(C(=O)N[C@H]5CNCC[C@@H]5F)c(F)cc4n3C)cc3ccc1nc32` [Example 498, 6-fluoro-~{N}-[(3~{S}, 4~{S})-4-fluoro-3-piperidyl]-1-methyl-2-[(2~{R})-2-methyl-4-oxo-3,6,16,22-tetrazatetracyclo [14.5.2.0^{5,10}.0^ {19,23}]tricosa-1(22), 5,7,9,17,19(23),20-heptaen-17-yl]benzimidazole-5-carboxamide] the value was 67 nM; for `C[C@H]1NC(=O)[C@H]2C[C@@H]2CCCCn2c(-c3nc4cc(C(=O)N[C@H]5CNCC[C@@H]5F)c(F)cc4n3C)cc3ccc1nc32` [Example 499, 6-fluoro-~{N}-[(3~ {S},4~{S})-4-fluoro-3-piperidyl]-1-methyl-2-[(2~{R},7~{S})-2-methyl-4-oxo-3,12,18-triazatetracyclo [10.5.2.0^{5,7}.0^{15,19}]nonadeca-1(18), 13,15(19),16-tetraen-13-yl]benzimidazole-5-carboxamide], 163 nM.

In the case of `C[C@H]1NC(=O)C(C)(C)CCCCCCn2c(-c3nc4cc(C(=O)N[C@H]5CNCC[C@@H]5F)ccc4n3C)cc3ccc1nc32` [Example 500, ~{N}-[(3~{S},4~ {S})-4-fluoro-3-piperidyl]-1-methyl-2-[(11~{R})-8,8,11-trimethyl-9-oxo-1,10,19-triazatricyclo[10.5.2.0^ {15,18}]nonadeca-12(19), 13,15(18),16-tetraen-17-yl]benzimidazole-5-carboxamide], the IC50 was determined as 90 nM. For `C[C@H]1NC(=O)C(C)(C)CCCCCCn2c(-c3nc4cc(C(=O)N[C@H]5CNCC[C@@H]5F)cc(Cl)c4n3C)cc3ccc1nc32` [Example 501, 7-chloro-~{N}-[(3~ {S},4~{S})-4-fluoro-3-piperidyl]-1-methyl-2-[(11~{R})-8,8,11-trimethyl-9-oxo-1,10,19-triazatricyclo[10.5.2.0^{15,18}]nonadeca-12(19),13,15(18), 16-tetraen-17-yl] benzimidazole-5-carboxamide], the 50% inhibitory concentration (IC50) amounted to 271 nM. Regarding `C[C@H]1NC(=O)C(C)(C)CCCCCCn2c(-c3nc4cc(C(=O)N[C@H]5CNCC[C@@H]5F)c(F)cc4n3CCOC(F)F)cc3ccc1nc32` [Example 502, 1-[2-(difluoromethoxy)ethyl]-6-fluoro-~{N}-[(3~ {S},4~{S})-4-fluoro-3-piperidyl]-2-[(11~{R})-8,8,11-trimethyl-9-oxo-1,10,19-triazatricyclo[10.5.2.0^ {15,18}]nonadeca-12(19),13,15(18),16-tetraen-17-yl]benzimidazole-5-carboxamide], the IC50 stood at 128 nM. With `COc1cc(C(=O)N2CC[C@@H](OC)[C@@H](N)C2)cc2nc(-c3cc4ccc5nc4n3CCCCCc3cccnc3C(=O)N[C@@H]5C)n(C)c12` [Example 503, (2~{R})-17-[5-[(3~ {S},4~{R})-3-amino-4-methoxy-piperidine-1-carbonyl]-7-methoxy-1-methyl-benzimidazol-2-yl]-2-methyl-3,6,16,22-tetrazatetracyclo [14.5.2.0^{5,10).0^{19,23}] tricosa-1(22),5(10),6,8,17,19(23),20-heptaen-4-one], the IC50 amounted to 110 nM. Regarding `CO[C@@H]1CCN(C(=O)c2cc(Cl)c3c(c2)nc(-c2cc4ccc5nc4n2CCCCCc2nccnc2C(=O)N[C@@H]5C)n3C)C[C@@H]1N` [Example 504, (2~{R})-17-[5-[(3~ {S},4~{R})-3-amino-4-methoxy-piperidine-1-carbonyl]-7-chloro-1-methyl-benzimidazol-2-yl]-2-methyl-3,6,9,16,22-pentazatetracyclo [14.5.2.0^{5,10}.0^{19, 23}]tricosa-1(22),5(10), 6,8,17,19(23),20-heptaen-4-one], the IC50 worked out at 172 nM. Consider `CO[C@@H]1CCN(C(=O)c2cc(Cl)c3c(c2)nc(-c2cc4ccc5nc4n2CCCCC[C@@H]2CC2C(=O)N[C@@H]5C)n3C)C[C@@H]1N` (stereo partly shown) [Example 505, (2~{R},7~{R})-14-[5-[(3~{S},4~{R})-3-amino-4-methoxy-piperidine-1-carbonyl]-7-chloro-1-methyl-benzimidazol-2-yl]-2-methyl-3,13,19-triazatetracyclo[11.5.2.0^ {5,7}.0^{16,20}]icosa-1(19),14,16(20),17-tetraen-4-one], for which the IC50 came out at 97 nM. As to `C[C@H]1NC(=O)C2C[C@H]2CCCCCn2c(-c3nc4cc(C(=O)N5CCC[C@@H](N)C5)cc(Cl)c4n3C)cc3ccc1nc32` (stereo partly shown) [Example 506, (2~{R},7~{R})-14-[5-[(3~ {R})-3-aminopiperidine-1-carbonyl]-7-chloro-1-methyl-benzimidazol-2-yl]-2-methyl-3,13,19-triazatetracyclo[11.5.2.0^ {5,7}.0^{16,20}]icosa-1(19), 14,16(20),17-tetraen-4-one], the IC50 came to 39 nM. Turning to `C[C@H]1NC(=O)C2C[C@H]2CCCCCn2c(-c3nc4cc(C(=O)N[C@H]5CNCC[C@@H]5F)cc(Cl)c4n3C)cc3ccc1nc32` (stereo partly shown) [Example 507, 7-chloro-~{N}-[(3~ {S},4~{S})-4-fluoro-3-piperidyl]-1-methyl-2-[(2~{R},7~{R})-2-methyl-4-oxo-3,13,19-triazatetracyclo[11.5.2.0^ {5,7}.0^{16,20}]icosa-1 (19),14,16(20),17-tetraen-14-yl]benzimidazole-5-carboxamide], the IC50 is 32 nM. In the case of `COc1cc(C(=O)N2CC3(CCCNC3)C2)cc2nc(-c3cc4ccc5nc4n3CCCCC[C@@H]3CC3C(=O)N[C@@H]5C)n(C)c12` (stereo partly shown) [Example 508, (2~{R},7~{R})-14-[5-(2,8-diazaspiro [3.5]nonane-2-carbonyl)-7-methoxy-1-methyl-benzimidazol-2-yl]-2-methyl-3,13,19-triazatetracyclo[11.5.2.0^ {5,7}.0^{16,20}]icosa-1(19),14,16(20),17-tetraen-4-one] it was 57 nM. With `COc1cc(C(=O)N[C@H](C)CN)cc2nc(-c3cc4ccc5nc4n3CCCCC[C@@H]3CC3C(=O)N[C@@H]5C)n(C)c12` (stereo partly shown) [Example 509, ~{N}-[(1~{R})-2-amino-1-methyl-ethyl]-7-methoxy-1-methyl-2-[(2~{R},7~{R})-2-methyl-4-oxo-3,13,19-triazatetracyclo[11.5.2.0^ {5,7}.0^{16,20}]icosa-1(19),14,16(20),17-tetraen-14-yl]benzimidazole-5-carboxamide], the IC50 was 146 nM. Turning to `COCCn1c(-c2cc3ccc4nc3n2CCCCCc2nccnc2C(=O)N[C@@H]4C)nc2cc(C(=O)N3CC[C@@H](OC)[C@@H](N)C3)cc(OC)c21` [Example 510, (2~{R})-17-[5-[(3~ {S),4~{R})-3-amino-4-methoxy-piperidine-1-carbonyl]-7-methoxy-1-(2-methoxyethyl)benzimidazol-2-yl]-2-methyl-3,6,9,16,22-pentazatetracyclo[14.5.2.0^ {5,10}.0^{19,23}] tricosa-1(22),5(10),6,8,17,19 (23),20-heptaen-4-one], the IC50 is 277 nM.
